Here are results for eight compounds from PubChem BioAssay (NCI).

Molecules are shown by their SMILES. Where “and” joins values, the source holds several entries; their conditions need not be identical. Equal values may be shown once.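 Compound exposure: 48 hours, 5 concentrations, 96-well plates. Abbreviation: GI50, concentration required for 50% inhibition of growth. The concentration for full growth arrest is given as TGI.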 Where only a bound is given, the exact number is not on record here.

Among the test systems are 786-0 renal; HL-60(TB) leukemia; U251 CNS; NCI/ADR-RES ovarian; HCT-116 colon; MALME-3M melanoma; HCT-15 colon; TK-10 renal; CCRF-CEM leukemia; K-562 leukemia.
What all share (test): growth of human tumour cells (NCI), 48 h

`CC1=NN(C(=O)c2ccccc2O)C(=O)/C1=C/c1ccc([N+](=O)[O-])cc1`: the GI50 in the assay with 786-0 renal is 0.774 µM; in the assay with HL-60(TB) leukemia it was 1.08 µM; with U251 CNS, 0.516 µM; with NCI/ADR-RES ovarian it was 0.449 µM; with HCT-116 colon it was 0.328 µM; in the assay on MALME-3M melanoma, 0.895 µM. Also, the GI50 is 0.932 µM in the assay with HCT-15 colon, 4.83 µM in the assay with TK-10 renal, 0.259 µM with CCRF-CEM leukemia and 0.216 µM in the assay with K-562 leukemia. Also, the TGI in the assay on 786-0 renal, in the assay on U251 CNS, in the assay on MALME-3M melanoma and in the assay with TK-10 renal was > 100 µM each time.

Take `COc1ccc(C#Cc2ccccc2C#CCCCCO)cc1`: the GI50 with 786-0 renal was 22.8 µM; in the assay with HL-60(TB) leukemia it was 23.7 µM; with U251 CNS, 12.7 µM; in the assay with NCI/ADR-RES ovarian it was 24.4 µM; in the assay with HCT-116 colon it was 22.5 µM; in the assay on MALME-3M melanoma, 23 µM. In addition, the GI50 in the assay on HCT-15 colon was 16.3 µM; in the assay on TK-10 renal, 16.7 µM; with CCRF-CEM leukemia, 23.5 µM; in the assay with K-562 leukemia, 21.9 µM. Besides, the TGI was 45.9 µM with 786-0 renal; 44.7 µM in the assay with HL-60(TB) leukemia; 25.3 µM with U251 CNS; 48.4 µM in the assay with NCI/ADR-RES ovarian; 43.7 µM in the assay with HCT-116 colon; 45.4 µM in the assay on MALME-3M melanoma. Besides, the TGI in the assay with HCT-15 colon turned out to be 29.9 µM; in the assay with TK-10 renal it was 35.2 µM; in the assay with CCRF-CEM leukemia it was 53.8 µM; with K-562 leukemia it was 43.9 µM.

Turning to `COc1cc2c(cc1OC)C13CCN4C=C5CCOC6CC(=O)N2C1C6C5CC43` (stereo not drawn), the TGI in the assay on 786-0 renal, with HL-60(TB) leukemia, with U251 CNS, in the assay with NCI/ADR-RES ovarian, with HCT-116 colon and with MALME-3M melanoma was > 100 µM throughout. Further, the TGI with HCT-15 colon, in the assay on TK-10 renal, with CCRF-CEM leukemia and in the assay on K-562 leukemia was > 100 µM throughout.

Regarding `CN(C)CCCOc1ccccc1NC1=C(Cl)C(=O)C(Nc2ccccc2OCCCN(C)C)=C(Cl)C1=O`, the GI50 in the assay with 786-0 renal is 0.661 µM; in the assay on HL-60(TB) leukemia, 0.244 µM; in the assay on U251 CNS, 0.611 µM; in the assay on NCI/ADR-RES ovarian it was 3.29 µM; in the assay on HCT-116 colon it was 0.183 µM; in the assay on MALME-3M melanoma it was 0.923 µM. In addition, the GI50 in the assay with HCT-15 colon is 0.749 µM; with TK-10 renal, 1.93 µM; in the assay on CCRF-CEM leukemia it was 0.262 µM; in the assay with K-562 leukemia, 0.274 µM. For the same compound, the TGI in the assay on 786-0 renal was 1.91 µM; in the assay on HL-60(TB) leukemia, 0.656 µM; with U251 CNS, 1.3 µM; in the assay on NCI/ADR-RES ovarian, 12.7 µM; in the assay with HCT-116 colon, 0.356 µM; in the assay with MALME-3M melanoma it was 2.43 µM. In addition, the TGI with HCT-15 colon stood at 2.18 µM; with TK-10 renal, 3.36 µM; in the assay on CCRF-CEM leukemia it was 1.3 µM; in the assay with K-562 leukemia it was 0.793 µM.

Consider `Nc1ncnc2c1ncn2C1OC(COP(=O)(O)CP(=O)(O)O)C(O)C1O` (stereo not drawn), for which the TGI in the assay with 786-0 renal, in the assay with HL-60(TB) leukemia, with U251 CNS, in the assay on NCI/ADR-RES ovarian, in the assay on HCT-116 colon and in the assay with MALME-3M melanoma was > 100 µM in each case. Also, the TGI in the assay with HCT-15 colon, in the assay on TK-10 renal, in the assay with CCRF-CEM leukemia and in the assay with K-562 leukemia was > 100 µM in each case.

For `CO[C@H](C(=O)[C@@H](O)[C@@H](C)O)[C@@H]1Cc2cc3cc(O[C@H]4C[C@@H](O[C@H]5C[C@@H](O)[C@H](O)C(C)O5)[C@H](O)C(C)O4)c(C)c(O)c3c(O)c2C(=O)[C@H]1O[C@H]1C[C@@H](O[C@H]2C[C@@H](O[C@H]3C[C@@H](OC)[C@H](O)C(C)O3)[C@@H](O)C(C)O2)C(O)(O)C(C)O1` (stereo partly drawn), the GI50 with 786-0 renal is 0.164 µM; in the assay on HL-60(TB) leukemia it was 2.94 µM; in the assay with U251 CNS it was 0.0329 µM; in the assay on NCI/ADR-RES ovarian, > 25 µM; in the assay on HCT-116 colon, 0.035 µM; in the assay on MALME-3M melanoma, 0.0532 µM. In addition, the GI50 in the assay with HCT-15 colon was 2.65 µM; with TK-10 renal, 0.15 µM; with CCRF-CEM leukemia, 0.138 µM; with K-562 leukemia it was 0.19 µM. Moreover, the TGI in the assay with 786-0 renal was > 25 µM; with HL-60(TB) leukemia it was > 25 µM; in the assay with U251 CNS it was > 25 µM; in the assay with NCI/ADR-RES ovarian it was > 25 µM; in the assay with HCT-116 colon, > 25 µM; in the assay on MALME-3M melanoma, 2.03 µM. Moreover, the TGI with HCT-15 colon is > 25 µM; in the assay with TK-10 renal it was > 24.1 µM; in the assay on CCRF-CEM leukemia, > 25 µM; in the assay with K-562 leukemia, > 25 µM.

In the case of `O=[N+]([O-])c1ccc(Nc2ccccc2-c2ccccc2)c2nonc12`, the GI50 in the assay on 786-0 renal is 12.6 µM; in the assay on HL-60(TB) leukemia, 17.8 µM; in the assay on U251 CNS it was 13.4 µM; with NCI/ADR-RES ovarian it was 13.6 µM; in the assay on HCT-116 colon, 13.9 µM; in the assay on MALME-3M melanoma it was 5.2 µM. Further, the GI50 was 13.2 µM with HCT-15 colon, 22.8 µM in the assay with TK-10 renal, 15.6 µM in the assay with CCRF-CEM leukemia and 18 µM with K-562 leukemia. For the same compound, the TGI came to 32.6 µM in the assay on 786-0 renal; 51.1 µM with HL-60(TB) leukemia; 29.3 µM with U251 CNS; 34.7 µM in the assay on NCI/ADR-RES ovarian; 31.6 µM with HCT-116 colon; 29.1 µM in the assay on MALME-3M melanoma. For the same compound, the TGI in the assay on HCT-15 colon was 28.2 µM; with TK-10 renal, 59.6 µM; with CCRF-CEM leukemia, > 72.2 µM; with K-562 leukemia it was > 100 µM.

As to `Cc1ccc(C(=O)N(CCCN)[C@@H](c2nc3cc(Cl)ccc3c(=O)n2Cc2ccccc2)C(C)C)cc1`, the GI50 in the assay with 786-0 renal is < 0.01 µM; in the assay on HL-60(TB) leukemia, < 0.01 µM; with U251 CNS it was < 0.01 µM; in the assay on NCI/ADR-RES ovarian, 0.0481 µM and 0.0406 µM; in the assay on HCT-116 colon it was < 0.01 µM; with MALME-3M melanoma it was 0.0303 µM. In addition, the GI50 in the assay with HCT-15 colon is 0.0159 µM and < 0.01 µM; in the assay with CCRF-CEM leukemia, < 0.01 µM; with K-562 leukemia, < 0.01 µM. Besides, the TGI in the assay with 786-0 renal is 2.08 µM and 1.98 µM; in the assay with HL-60(TB) leukemia, 0.482 µM; with U251 CNS it was 1.19 µM and 1.53 µM; in the assay on NCI/ADR-RES ovarian, 0.307 µM and 0.481 µM; with HCT-116 colon it was 1.41 µM and 1.26 µM; with MALME-3M melanoma, 2.39 µM. Besides, the TGI in the assay with HCT-15 colon was 1.92 µM and 1.44 µM; in the assay with TK-10 renal, 1.71 µM and 2.81 µM; with CCRF-CEM leukemia, 3.3 µM and 1.46 µM; in the assay with K-562 leukemia it was 1.67 µM and 1.23 µM.
